Measurements: EP4140986A1, “PYRAZINE COMPOUNDS FOR THE CONTROL OF INVERTEBRATE PESTS” (BASF SE, priority 2021, dated 2023)

Tests used:
Type in all cases: in vivo
[1] = test system: Southern armyworm (Spodoptera eridania), 2nd instar larvae; test: Southern armyworm foliar spray test on Lima bean plants; conditions: 2nd instar larvae on sprayed Lima bean plants, 4 days after treatment
Description: The active compounds were formulated by a Tecan liquid handler in 100% cyclohexanone as a 10,000-ppm solution supplied in tubes. The 10,000-ppm solution was serially diluted in 100% cyclohexanone to make interim solutions. These served as stock solutions for which final dilutions were made by the Tecan in 50% acetone:50% water (v/v) into 10 or 20ml glass vials. A non-ionic surfactant (Kinetic®) was included in the solution at a volume of 0.01% (v/v). The vials were then inserted into an automated electrostatic sprayer equipped with an atomizing nozzle for application to plants/insects. Lima bean plants (variety Sieva) were grown 2 plants to a pot and selected for treatment at the 1st true leaf stage. Test solutions were sprayed onto the foliage by an auto-mated electrostatic plant sprayer equipped with an atomizing spray nozzle. The plants were dried in the sprayer fume hood and then removed from the sprayer. Each pot was placed into perforated plastic bags with a zip closure. Ten to 11 armyworm larvae were placed into the bag and the bags zipped closed. Test plants were maintained in a growth room at about 25°C and about 20-40% relative humidity for 4 days, avoiding direct exposure to fluorescent light (14:10 light:dark photoperiod) to prevent trapping of heat inside the bags. Mortality and reduced feeding were assessed 4 days after treatment, compared to untreated control plants.

[2] = test system: green peach aphid (Myzus persicae); test: Green Peach Aphid systemic test, artificial diet in 96-well microtiter plates; conditions: 72 h, adult aphids on treated diet, 3 days, read-out: mortality in comparison with untreated controls
Source text: For evaluating control of green peach aphid (Myzus persicae) through systemic means, the test unit consisted of 96-well-microtiter plates containing liquid artificial diet under an artificial mem brane.
The compounds were formulated using a solution containing 75% v/v water and 25% v/v DMSO. Different concentrations of formulated compounds were pipetted into the aphid diet, using a custom built pipetter, at two replications.
After application, 5 - 8 adult aphids were placed on the artificial membrane inside the microtiter plate wells. The aphids were then allowed to suck on the treated aphid diet and incubated at about 23 ± 1°C and about 50 ± 5 % relative humidity for 3 days. Aphid mortality and fecundity was then visually assessed.

[3] = test system: yellow fever mosquito (Aedes aegypti); test: whole plant or invertebrate; conditions: 48 h, larval mortality, 2 days, read-out: mortality in comparison with untreated controls
Description: For evaluating control of yellow fever mosquito (Aedes aegypti) the test unit consisted of 96-well-microtiter plates containing 200µl of tap water per well and 5-15 freshly hatched A. aegypti larvae.
The active compounds were formulated using a solution containing 75% (v/v) water and 25% (v/v) DMSO. Different concentrations of formulated compounds or mixtures were sprayed onto the insect diet at 2.5µl, using a custom-built micro atomizer, at two replications.
After application, microtiter plates were incubated at 28 ± 1°C, 80 ± 5 % RH for 2 days. Larval mortality was then visually assessed.

[4] = test system: tobacco budworm (Heliothis virescens); test: Tobacco budworm test, insect diet with eggs in 96-well microtiter plates; conditions: 120 h, egg and larval mortality, 5 days, read-out: mortality in comparison with untreated controls
Description: For evaluating control of tobacco budworm (Heliothis virescens), the test unit consisted of 96-well-microtiter plates containing an insect diet and 15-25 H. virescens eggs.
The compounds were formulated using a solution containing 75% v/v water and 25% v/v DMSO. Different concentrations of formulated compounds were sprayed onto the insect diet at 10 µl using a custom-built micro atomizer, at two replications.
After application, microtiter plates were incubated at about 28 ± 1°C and about 80 ± 5 % relative humidity for 5 days. Egg and larval mortality was then visually assessed.

[5] = test system: boll weevil (Anthonomus grandis); test: Boll weevil test, insect diet with eggs in 96-well microtiter plates; conditions: 120 h, egg and larval mortality, 5 days, read-out: mortality in comparison with untreated controls
Description: For evaluating control of boll weevil (Anthonomus grandis), the test unit consisted of 96-well-microtiter plates containing an insect diet and 5-10 A. grandis eggs.
The compounds were formulated using a solution containing 75% v/v water and 25% v/v DMSO. Different concentrations of formulated compounds were sprayed onto the insect diet at 5 µl, using a custom-built micro atomizer, at two replications.
After application, microtiter plates were incubated at about 25 ± 1°C and about 75 ± 5 % relative humidity for 5 days. Egg and larval mortality was then visually assessed.

With CON=C(N)c1nccnc1C(C)N(CC1CC1)C(=O)c1cc(C(F)(F)F)cc(C(F)(F)F)c1 (stereo not drawn) [Compound I-4] the “mortality in comparison with untreated controls” value ([1]; 300 ppm) was “at least 75%”.
For CON=C(C)c1nccnc1C(C)NC(=O)c1cc(C(F)(F)F)cc(C(F)(F)F)c1 (stereo not drawn) [Compound I-1, N-[1-[3-[N-methoxy-C-methyl-carbonimidoyl]pyrazin-2-yl]ethyl]-3,5-bis(trifluoromethyl)benzamide], the mortality at 2500 ppm [2] was at least 75%, the mortality at 2500 ppm [3] was at least 75% and the mortality at 2500 ppm [4] was at least 75%. The mortality at 2500 ppm [5] was at least 75% and the mortality at 300 ppm ([1]; Spodoptera eridania, foliar, 96 h, read-out: mortality in comparison with untreated controls) was at least 75%.
